# Results as given in ChEMBL document CHEMBL4321854, “Discovery of a First-in-Class Mitogen-Activated Protein Kinase Kinase 1/2 Degrader” (J Med Chem, 2019).
# The source made the active and inactive calls. The rule behind the calls is not given here.
# Tests used:
# [1] = Ratio of Plasma concentration in Swiss albino mouse at 50 mg/kg, ip measured after 8 hrs to GI50 for antiproliferative activity against human SK-MEL-28 cells; format: organism-based; details: in vivo
# [2] = biological target: T1, von Hippel-Lindau disease tumor suppressor/Dual specificity mitogen-activated protein kinase kinase 1 (Homo sapiens) (UniProt Q02750+P40337); assay: Protac activity against VHL/MEK1 in human SK-MEL-28 cells harboring with BRAF V600E variant assessed as degradation of MEK1 at 0.1 to 0.3 uM after 4 hrs by Western blot analysis; format: cell-based
# T1 sequence (P40337 whole entry, looked up): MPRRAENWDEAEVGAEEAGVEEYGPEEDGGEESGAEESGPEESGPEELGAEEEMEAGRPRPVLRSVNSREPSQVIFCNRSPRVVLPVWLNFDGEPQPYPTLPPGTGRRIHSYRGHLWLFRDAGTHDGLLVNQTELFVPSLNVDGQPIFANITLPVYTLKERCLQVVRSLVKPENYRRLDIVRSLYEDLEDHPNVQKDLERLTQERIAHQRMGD
# T1 sequence (Q02750 whole entry, looked up): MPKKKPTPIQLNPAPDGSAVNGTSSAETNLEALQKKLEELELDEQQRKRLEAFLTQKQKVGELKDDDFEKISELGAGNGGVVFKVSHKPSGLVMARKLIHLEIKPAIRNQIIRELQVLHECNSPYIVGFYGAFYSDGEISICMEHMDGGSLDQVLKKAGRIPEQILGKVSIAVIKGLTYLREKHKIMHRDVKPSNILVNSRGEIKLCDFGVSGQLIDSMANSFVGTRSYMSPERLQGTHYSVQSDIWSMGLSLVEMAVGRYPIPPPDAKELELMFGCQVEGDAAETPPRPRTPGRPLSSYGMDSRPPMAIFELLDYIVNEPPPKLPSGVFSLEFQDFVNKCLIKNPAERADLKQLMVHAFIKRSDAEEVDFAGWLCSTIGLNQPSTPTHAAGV
# [3] = biological target: T2, von Hippel-Lindau disease tumor suppressor/Dual specificity mitogen-activated protein kinase kinase 2 (Homo sapiens, UniProt P36507+P40337, V600E); assay: (§1) Protac activity against VHL/MEK2 in human SK-MEL-28 cells harboring BRAF V600E variant assessed as degradation of MEK2 after 24 hrs by Western blot analysis; format: cell-based
# T2 sequence (P36507 whole entry, looked up, stated change not applied): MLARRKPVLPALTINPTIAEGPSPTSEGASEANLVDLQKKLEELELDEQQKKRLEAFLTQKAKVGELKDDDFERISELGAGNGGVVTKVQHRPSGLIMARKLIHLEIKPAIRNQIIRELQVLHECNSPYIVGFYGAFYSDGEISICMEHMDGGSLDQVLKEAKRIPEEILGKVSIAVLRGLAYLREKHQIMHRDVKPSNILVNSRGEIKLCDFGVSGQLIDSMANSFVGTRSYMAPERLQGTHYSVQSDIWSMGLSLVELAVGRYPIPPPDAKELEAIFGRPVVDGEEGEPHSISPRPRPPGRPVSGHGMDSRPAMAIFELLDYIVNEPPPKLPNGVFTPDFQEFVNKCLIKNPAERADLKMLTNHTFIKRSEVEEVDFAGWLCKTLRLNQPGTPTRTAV
# T2 sequence (P40337 whole entry, looked up, stated change not applied): as the sequence (P40337 whole entry, looked up) above
# [4] = biological target: T3, von Hippel-Lindau disease tumor suppressor/Dual specificity mitogen-activated protein kinase kinase 2 (Homo sapiens) (UniProt P36507+P40337); assay: as §1; format: cell-based
# T3 sequence (P36507 whole entry, looked up): as the sequence (P36507 whole entry, looked up, stated change not applied) above
# T3 sequence (P40337 whole entry, looked up): as the sequence (P40337 whole entry, looked up) above
# [5] = biological target: T2, von Hippel-Lindau disease tumor suppressor/Dual specificity mitogen-activated protein kinase kinase 2; assay: (§2) Protac activity against VHL/MEK2 in human UACC257 cells harboring BRAF V600E variant assessed as degradation of MEK2 after 24 hrs by Western blot analysis; format: cell-based
# [6] = biological target: T3, von Hippel-Lindau disease tumor suppressor/Dual specificity mitogen-activated protein kinase kinase 2 (Homo sapiens); assay: as §2; format: cell-based
# [7] = biological target: T1, von Hippel-Lindau disease tumor suppressor/Dual specificity mitogen-activated protein kinase kinase 1 (Homo sapiens); assay: Protac activity against VHL/MEK1 in human HT-29 cells harboring with BRAF V600E variant assessed as degradation of MEK1 by measuring MEK1 protein level at 0.3 uM pretreated with MEK1/2 inhibitor, PD0325901 for 2 hrs followed by incubation with compound for 10 hrs by Western blot analysis; format: cell-based
# [8] = biological target: T3, von Hippel-Lindau disease tumor suppressor/Dual specificity mitogen-activated protein kinase kinase 2 (Homo sapiens); assay: (§3) Protac activity against VHL/MEK2 in human SK-MEL-28 cells harboring with BRAF V600E variant assessed as degradation of MEK2 by measuring MEK2 protein level at 0.3 uM pretreated with proteasome inhibitor, MG-132 for 2 hrs followed by incubation with compound for 10 hrs by Western blot analysis; format: cell-based
# [9] = biological target: T4, von Hippel-Lindau disease tumor suppressor/Dual specificity mitogen-activated protein kinase kinase 2/Dual specificity mitogen-activated protein kinase kinase 1 (Homo sapiens) (UniProt P36507+Q02750+P40337); assay: Protac activity against VHL/MEK1/2 in human SK-MEL-28 cells harboring with BRAF V600E variant assessed as in phosphorylation of MEK at S218/222 residues at 0.3 uM pretreated with VHL ligand, VH 032 for 2 hrs followed by incubation with compound for 10 hrs by Western blot analysis; format: cell-based
# T4 sequence (P36507 whole entry, looked up): as the sequence (P36507 whole entry, looked up, stated change not applied) above
# T4 sequence (P40337 whole entry, looked up): as the sequence (P40337 whole entry, looked up) above
# T4 sequence (Q02750 whole entry, looked up): as the sequence (Q02750 whole entry, looked up) above
# UACC-257 = assay: Antiproliferative activity against human UACC257 cells assessed as reduction in cell growth after 3 days by MTT assay; format: functional
# [10] = biological target: T2, von Hippel-Lindau disease tumor suppressor/Dual specificity mitogen-activated protein kinase kinase 2; assay: (§4) Protac activity against VHL/MEK2 in human COLO205 cells harboring BRAF V600E variant assessed as degradation of MEK2 after 24 hrs by Western blot analysis; format: cell-based
# [11] = biological target: T3, von Hippel-Lindau disease tumor suppressor/Dual specificity mitogen-activated protein kinase kinase 2 (Homo sapiens); assay: as §4; format: cell-based
# [12] = biological target: T3, von Hippel-Lindau disease tumor suppressor/Dual specificity mitogen-activated protein kinase kinase 2 (Homo sapiens); assay: Protac activity against VHL/MEK2 in human HT-29 cells harboring with BRAF V600E variant assessed as degradation of MEK2 at 0.1 to 0.3 uM after 4 hrs by Western blot analysis; format: cell-based
# COLO 205 = assay: Effect on total ERK protein expression in human COLO205 cells at 0.001 to 5 uM after 24 hrs by Western blot analysis; format: functional, cell-based
# [13] = Toxicity in Swiss albino mouse assessed as effect on adverse events at 50 mg/kg, ip; format: organism-based; details: in vivo
# [14] = biological target: T3, von Hippel-Lindau disease tumor suppressor/Dual specificity mitogen-activated protein kinase kinase 2 (Homo sapiens); assay: Protac activity against VHL/MEK2 in human SK-MEL-28 cells harboring with BRAF V600E variant assessed as degradation of MEK2 by measuring reduction in MEK2 protein level at 0.3 uM after 24 hrs by Western blot analysis relative to control; format: cell-based; design: scale not given: the % may be the effect or the level left
# [15] = biological target: T4, von Hippel-Lindau disease tumor suppressor/Dual specificity mitogen-activated protein kinase kinase 2/Dual specificity mitogen-activated protein kinase kinase 1 (Homo sapiens); assay: Protac activity against VHL/MEK1/2 in human SK-MEL-28 cells harboring with BRAF V600E variant assessed as reduction in phosphorylation of ERK at T202/Y204 residues at 0.1 to 0.3 uM by Western blot analysis; format: cell-based; details: TDE = time-dependent effect
# [16] = biological target: T4, von Hippel-Lindau disease tumor suppressor/Dual specificity mitogen-activated protein kinase kinase 2/Dual specificity mitogen-activated protein kinase kinase 1 (Homo sapiens); assay: Protac activity against VHL/MEK1/2 in human SK-MEL-28 cells harboring with BRAF V600E variant assessed as reduction in phosphorylation of ERK at T202/Y204 residues after 24 hrs by Western blot analysis; format: cell-based
# [17] = biological target: T3, von Hippel-Lindau disease tumor suppressor/Dual specificity mitogen-activated protein kinase kinase 2 (Homo sapiens); assay: as §3, with “NEDD8-activating enzyme” for “proteasome”, “MLN4924” for “MG-132”; format: cell-based
# [18] = biological target: T4, von Hippel-Lindau disease tumor suppressor/Dual specificity mitogen-activated protein kinase kinase 2/Dual specificity mitogen-activated protein kinase kinase 1 (Homo sapiens); assay: Protac activity against VHL/MEK1/2 in human HT-29 cells harboring with BRAF V600E variant assessed as phosphorylation of ERK at T202/Y204 residues at 0.3 uM pretreated with MEK1/2 inhibitor, PD0325901 for 2 hrs followed by incubation with compound for 10 hrs by Western blot analysis; format: cell-based
# [19] = biological target: T3, von Hippel-Lindau disease tumor suppressor/Dual specificity mitogen-activated protein kinase kinase 2 (Homo sapiens); assay: Protac activity against VHL/MEK2 in human HT-29 cells harboring with BRAF V600E variant assessed as degradation of MEK2 at 0.3 uM after 3 to 144 hrs by Western blot analysis; format: cell-based
# [20] = biological target: Dual specificity mitogen-activated protein kinase kinase 1 (Homo sapiens, UniProt Q02750); assay: Inhibition of recombinant full length human His-tagged MEK1 expressed in baculovirus expression system using ERK K52R dead variant as substrate preincubated for 20 mins followed by incubation with 33P-ATP addition for 2 hrs by hotspot kinase assay
# Dual specificity mitogen-activated protein kinase kinase 1, sequence (Q02750 whole entry): as the sequence (Q02750 whole entry, looked up) above
# [21] = biological target: T1, von Hippel-Lindau disease tumor suppressor/Dual specificity mitogen-activated protein kinase kinase 1 (Homo sapiens); assay: Protac activity against VHL/MEK1 in human SK-MEL-28 cells harboring with BRAF V600E variant assessed as degradation of MEK1 by measuring MEK1 protein level at 0.3 uM pretreated with MEK1/2 inhibitor, PD0325901 for 2 hrs followed by incubation with compound for 10 hrs by Western blot analysis; format: cell-based
# [22] = biological target: T1, von Hippel-Lindau disease tumor suppressor/Dual specificity mitogen-activated protein kinase kinase 1 (Homo sapiens); assay: Protac activity against VHL/MEK1 in human HT-29 cells harboring with BRAF V600E variant assessed as degradation of MEK1 by measuring reduction in MEK1 protein level at 0.1 uM after 10 hrs by LC-MS based Volcano plot analysis; format: cell-based
# [23] = biological target: T1, von Hippel-Lindau disease tumor suppressor/Dual specificity mitogen-activated protein kinase kinase 1 (Homo sapiens); assay: Protac activity against VHL/MEK1 in human HT-29 cells harboring with BRAF V600E variant assessed as degradation of MEK1 at 3 to 5 uM after 24 hrs by Western blot analysis; format: cell-based
# [24] = biological target: T4, von Hippel-Lindau disease tumor suppressor/Dual specificity mitogen-activated protein kinase kinase 2/Dual specificity mitogen-activated protein kinase kinase 1 (Homo sapiens); assay: Protac activity against VHL/MEK1/2 in human HT-29 cells harboring with BRAF V600E variant assessed as phosphorylation of ERK at T202/Y204 residues at 0.3 uM pretreated with VHL ligand, VH 032 for 2 hrs followed by incubation with compound for 10 hrs by Western blot analysis; format: cell-based
# HT-29 = assay: Antiproliferative activity against human HT-29 cells assessed as reduction in cell growth after 3 days by MTT assay; format: functional
# [25] = biological target: T1, von Hippel-Lindau disease tumor suppressor/Dual specificity mitogen-activated protein kinase kinase 1 (Homo sapiens); assay: Protac activity against VHL/MEK1 in human SK-MEL-28 cells harboring with BRAF V600E variant assessed as degradation of MEK1 at 3 to 5 uM after 24 hrs by Western blot analysis; format: cell-based
compound,measurement,setting,value
Cc1ncsc1-c1ccc([C@H](C)NC(=O)[C@@H]2C[C@@H](O)CN2C(=O)[C@@H](NC(=O)CCCCCCCCCCNCCCONC(=O)c2ccc(F)c(F)c2Nc2ccc(I)cc2F)C(C)(C)C)cc1,Ratio,[1],3 to 20
same,Activity,[2],Active
same,DC50,[3],0.0093 µM
same,Activity,[4],Dose-dependent effect
same,DC50,[5],0.027 µM
same,Activity,[6],Dose-dependent effect
same,Activity,[7],inactive
same,Activity,[8],inactive
same,Activity,[9],inactive
same,growth inhibition (GI),UACC-257,Dose-dependent effect
same,GI50,"UACC-257; UACC-257, 72 h",0.03 to 0.2 µM
same,DC50,[10],0.011 µM
same,Activity,[11],Dose-dependent effect
same,Activity,[12],Active
same,Activity,COLO 205,inactive
same,Activity,[13],Non-Toxic
same,Activity,[14],> 90%
same,Activity,[15],Tde
same,Activity,[16],Dose-dependent effect
same,Activity,[17],inactive
same,Activity,[18],inactive
same,Activity,[19],Active
same,IC50,[20],1.5 µM
same,Activity,[21],inactive
same,Activity,[22],Active
same,Activity,[23],Active
same,Activity,[24],inactive
same,growth inhibition (GI),HT-29,Dose-dependent effect
same,GI50,"HT-29; HT-29, 72 h",0.13 µM
same,Activity,[25],Active
